# Laboratory results taken from patent US5482967A, “Condensed heterocyclic compounds, their production and use” (Takeda Chemical Industries, Ltd., priority 1992, dated 1996).
# pIC50: −log10 of the molar value. Structures can show the parent of a compound that is named as a salt.
# Biological target: substance P receptor (Homo sapiens, UniProt P25103)
# Assay: Radioligand receptor binding inhibitory assay using receptor from human lymphoblast cells (IM-9), 125I-BHSP
# Details: IM-9 receptor, 25° C., 30 minutes
# Procedure: The method of A. Margaret et al. [Molecular Pharmacology 42, 458 (1992)] was modified and used. The receptor was prepared from human lymphoblast cells (IM-9). IM-9 cells were grown in 175 cm^2 tissue culture flasks (100 ml×10) at a density approximately 2×10^5 /ml of RPMI 1640 with L-glutamine, 10% (V/V) heat inactivated fetal calf serum, penicillin (100 u/ml), and streptomycin (100 μg/ml) at 37° C. in 5% CO2 /95% air for 3 days. IM-9 cells were obtained by centrifugation at 500×g for 5 minutes at 5° C. The pellet obtained was washed once with phosphate buffer (Flow Laboratories, CAT No. 28-103-05), homogenized using Polytron homogenizer (Kinematika, Germany) in 30 ml of 50 mM Tris-HCl buffer containing 120 mM NaCl, 5 mM KCl, 2 μg/ml phenylmethyl sulfonyl fluoride, and 1 mM ethylenediamine tetra-acetic acid and then centrifuged at 40,000×g for 20 minutes. The residue was washed twice with 30 ml of buffer described above, and preserved frozen (-80° C.).
# The above specimen was suspended in a reaction buffer (50 mM Tris-HCl buffer (pH 7.4), 0.02% bovine serum albumin, 1 mM phenylmethylsulfonyl fluoride, 2 μg/ml chymostatin, 40 μg/ml bacitracin, 3 mM manganese chloride) at a protein concentration of 1.5 mg/ml and a 100 μl portion of the suspension was used in the reaction. After addition of the sample and 125I-BHSP (0.46 KBq), the reaction was conducted in 0.2 ml of reaction buffer at 25° C. for 30 minutes. The amount of nonspecific binding was determined by adding substance P at a final concentration of 2×10^-6 M. After the reaction, using a cell harvester (290PHD, Cambridge Technology, Inc., England), rapid filtration was carried out through a glass filter (GF/B, Whatman, U.S.A.) to stop the reaction. After washing three times with 250 μl of 50 mM Tris-HCl buffer (pH 7.4) containing 0.02% bovine serum albumin, the radioactivity remaining on the filter was measured with a gamma counter. Before use, the filter was immersed in 0.1% polyethyleneimine for 24 hours and air-dried.
# substance P receptor, sequence (P25103 whole entry): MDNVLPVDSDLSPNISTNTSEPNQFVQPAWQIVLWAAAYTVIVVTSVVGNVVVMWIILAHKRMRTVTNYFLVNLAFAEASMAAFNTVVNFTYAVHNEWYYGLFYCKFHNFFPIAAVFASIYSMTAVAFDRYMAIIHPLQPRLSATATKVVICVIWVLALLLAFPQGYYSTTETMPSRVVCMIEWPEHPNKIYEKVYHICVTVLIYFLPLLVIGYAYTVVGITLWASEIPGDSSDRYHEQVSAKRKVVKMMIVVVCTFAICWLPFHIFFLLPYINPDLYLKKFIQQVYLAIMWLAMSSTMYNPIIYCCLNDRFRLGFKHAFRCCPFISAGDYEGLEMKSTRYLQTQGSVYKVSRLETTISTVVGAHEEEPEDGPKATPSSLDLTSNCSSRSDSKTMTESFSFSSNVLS
row,pIC50,SMILES
1,9.46,"CN(Cc1cc(C(F)(F)F)cc(C(F)(F)F)c1)C(=O)c1c(-c2ccc(F)cc2)c2ccccc2c(=O)n1C [Example 166, N-[3,5-Bis(trifluoromethyl)benzyl]-4-(4-fluorophenyl)-1,2-dihydro-N,2-dimethyl-1-oxo-3-isoquinolinecarboxamide]"
2,7.72,"Cc1ccc(CNC(=O)c2c(-c3ccccc3)c3ccccc3c(=O)n2C)cc1 [Example 170, 1,2-Dihydro-2-methyl-N-(4-methylbenzyl)-1-oxo-4-phenyl-3isoquinolinecarboxamide]"
3,7.70,"Cn1c(C(=O)NCc2ccc(C(F)(F)F)cc2)c(-c2ccccc2)c2ccccc2c1=O [Example 171, 1,2-Dihydro-2-methyl-1-oxo-4-phenyl-N-[4-(trifluoromethyl)benzyl]-3-isoquinolinecarboxamide]"
4,9.30,"CN(Cc1cc(C(F)(F)F)cc(C(F)(F)F)c1)C(=O)c1[nH]c(=O)c2ccccc2c1-c1ccccc1 [Example 172, N-[3,5-Bis(trifluoromethyl)benzyl]-1,2-dihydro-N-methyl-1-oxo-4-phenyl-3-isoquinolinecarboxamide]"
5,7.62,"Cn1c(C(=O)NCc2cc(C(F)(F)F)cc(C(F)(F)F)c2)c(-c2ccccc2)c2cc(Cl)ccc2c1=O [Example 173, N-[3,5-Bis(trifluoromethyl)benzyl]-6-chloro-1,2-dihydro-2-methyl-1-oxo-4-phenyl-3-isoquinolinecarboxamide]"
6,8.47,"CN(Cc1cc(C(F)(F)F)cc(C(F)(F)F)c1)C(=O)c1c(-c2ccccc2)c2cc(Cl)ccc2c(=O)n1C [Example 174, N-[3,5-Bis(trifluoromethyl)benzyl]-6-chloro-1,2-dihydro-N,2-dimethyl-1-oxo-4-phenyl-3-isoquinolinecarboxamide]"
7,8.21,"Cc1cc(F)ccc1-c1c(C(=O)NCc2cc(C(F)(F)F)cc(C(F)(F)F)c2)n(C)c(=O)c2ccccc12 [Example 175, N-[3,5-Bis(trifluoromethyl)benzyl]-4-(4-fluoro-2-methylphenyl)-1,2-dihydro-2-methyl-1-oxo-3-isoquinolinecarboxamide]"
8,9.15,"Cc1cc(F)ccc1-c1c(C(=O)N(C)Cc2cc(C(F)(F)F)cc(C(F)(F)F)c2)n(C)c(=O)c2ccccc12 [Example 176, N-[3,5-Bis(trifluoromethyl)benzyl]-4-(4-fluoro-2-methylphenyl)-1,2-dihydro-N,2-dimethyl-1-oxo-3-isoquinolinecarboxamide]"
9,7.89,"CN(Cc1cc(C(F)(F)F)cc(C(F)(F)F)c1)C(=O)c1[nH]c(=O)c2ccc(Cl)cc2c1-c1ccccc1 [Example 177, N-[3,5-Bis(trifluoromethyl)benzyl]-6-chloro-1,2-dihydro-N-methyl-1-oxo-4-phenyl-3-isoquinolinecarboxamide]"
10,9.85,"CN(Cc1cc(C(F)(F)F)cc(C(F)(F)F)c1)C(=O)c1[nH]c(=O)c2ccccc2c1-c1ccc(F)cc1 [Example 178, N-[3,5-Bis(trifluoromethyl)benzyl]-4-(4-fluorophenyl)-1,2-dihydro-N-methyl-1-oxo-3-isoquinolinecarboxamide]"
11,7.10,"CCOC(=O)CCn1c(C(=O)NCc2cc(C(F)(F)F)cc(C(F)(F)F)c2)c(-c2ccccc2)c2ccccc2c1=O [Example 179, N-[3,5-Bis(trifluoromethyl)benzyl]-2-(2-ethoxycarbonylethyl)-1,2-dihydro-1-oxo-4-phenyl-3-isoquinolinecarboxamide]"
12,8.04,"CCOC(=O)CCn1c(C(=O)N(C)Cc2cc(C(F)(F)F)cc(C(F)(F)F)c2)c(-c2ccccc2)c2ccccc2c1=O [Example 180, N-[3,5-Bis(trifluoromethyl)benzyl]-2-(2-ethoxycarbonylethyl)-1,2-dihydro-N-methyl-1-oxo-4-phenyl-3-isoquinolinecarboxamide]"
13,7.51,"Cn1c(C(=O)NCc2cc(C(F)(F)F)cc(C(F)(F)F)c2)c(-c2ccccc2C(F)(F)F)c2ccccc2c1=O [Example 181, N-[3,5-Bis(trifluoromethyl)benzyl]-1,2-dihydro-2-methyl-1-oxo-4-(2-trifluoromethylphenyl)-3-isoquinolinecarboxamide]"
14,8.70,"CN(Cc1cc(C(F)(F)F)cc(C(F)(F)F)c1)C(=O)c1c(-c2ccccc2C(F)(F)F)c2ccccc2c(=O)n1C [Example 182, N-[3,5-Bis(trifluoromethyl)benzyl]-1,2-dihydro-N,2-dimethyl-1-oxo-4-(2-trifluoromethylphenyl)-3-isoquinolinecarboxamide]"
15,7.77,"CN(C)CCn1c(C(=O)N(C)Cc2cc(C(F)(F)F)cc(C(F)(F)F)c2)c(-c2ccccc2)c2ccccc2c1=O [Example 184, N-[3,5-Bis(trifluoromethyl)benzyl]-2-[2-(N,N-dimethylamino)ethyl]-1,2-dihydro-N-methyl-1-oxo-4-phenyl-3-isoquinolinecarboxamide hydrochloride]"
16,7.49,"Cn1c(C(=O)NCc2cc(C(F)(F)F)cc(C(F)(F)F)c2)c(-c2ccccc2)c2c(c1=O)CCCC2 [Example 185, N-[3,5-Bis(trifluoromethyl)benzyl]-1,2,5,6,7,8-hexahydro-2-methyl-1-oxo-4-phenyl-3-isoquinolinecarboxamide]"
17,8.74,"CN(Cc1cc(C(F)(F)F)cc(C(F)(F)F)c1)C(=O)c1c(-c2ccccc2)c2c(c(=O)n1C)CCCC2 [Example 186, N-[3,5-Bis(trifluoromethyl)benzyl]-1,2,5,6,7,8-hexahydro-N-2-dimethyl-1-oxo-4-phenyl-3-isoquinolinecarboxamide]"
18,8.85,"CCN(Cc1cc(C(F)(F)F)cc(C(F)(F)F)c1)C(=O)c1c(-c2ccccc2)c2ccccc2c(=O)n1C [Example 187, N-[3,5-Bis(trifluoromethyl)benzyl]-1,2-dihydro-N-ethyl-2-methyl-1-oxo-4-phenyl-3-isoquinolinecarboxamide]"
19,8.92,"CN(Cc1cc(C(F)(F)F)cc(C(F)(F)F)c1)C(=O)c1c(-c2ccc(F)cc2)c2c(F)cccc2c(=O)n1C [Example 188, N-[3,5-Bis(trifluoromethyl)benzyl]-5-fluoro-4-(4-fluorophenyl)-N,2-dimethyl-1-oxo-3-isoquinolinecarboxamide]"
20,8.77,"CCn1c(C(=O)N(C)Cc2cc(C(F)(F)F)cc(C(F)(F)F)c2)c(-c2ccccc2)c2ccccc2c1=O [Example 189, N-[3,5-Bis(trifluoromethyl)benzyl]-1,2-dihydro-2-ethyl-N-methyl-1-oxo-4-phenyl-3-isoquinolinecarboxamide]"
21,7.89,"COc1ccccc1CNCc1c(-c2ccccc2)c2cc(C)c(C)cc2c(=O)n1C [Example 190, 1,2-Dihydro-N-(2-methoxybenzyl)-2,6,7-trimethyl-1-oxo-4-phenyl-3-isoquinolinemethylamine]"
22,7.55,"Cc1cc(C)cc(CNCc2c(-c3ccccc3)c3cc(C)c(C)cc3c(=O)n2C)c1 [Example 191, N-(3,5-Dimethylbenzyl)-1,2-dihydro-2,6,7-trimethyl-1-oxo-4-phenyl-3-isoquinolinemethylamine]"
23,7.66,"COc1cc(CNCc2c(-c3ccccc3)c3ccccc3c(=O)n2C)cc(OC)c1OC [Example 205, 1,2-Dihydro-2-methyl-1-oxo-4-phenyl-N-(3,4,5-trimethoxybenzyl)-3-isoquinolinemethylamine]"
24,6.96,"COc1ccccc1CCOCc1c(-c2ccccc2)c2cc(C)c(C)cc2c(=O)n1C [Example 207, 1,2-Dihydro-2,6,7-trimethyl-1-oxo-4-phenyl-3-isoquinolinemethyl 2-(2-methoxyphenyl)ethyl ether]"
25,6.85,"Cc1cc(C)cc(COCc2c(-c3ccccc3)c3cc(C)c(C)cc3c(=O)n2C)c1 [Example 208, 1,2-Dihydro-2,6,7-trimethyl-1-oxo-4-phenyl-3-isoquinolinemethyl 3,5-dimethylbenzyl ether]"
26,7.64,"Cn1c(COCc2cc(C(F)(F)F)cc(C(F)(F)F)c2)c(-c2ccccc2)c2ccccc2c1=O [Example 211, 3,5-Bis(trifluoromethyl)benzyl 1,2-dihydro-2-methyl-1-oxo-4-phenyl-3-isoquinolinemethyl ether]"
27,7.52,"Cc1ccccc1-c1c(COCc2cc(C(F)(F)F)cc(C(F)(F)F)c2)n(C)c(=O)c2ccccc12 [Example 212, 3,5-Bis(trifluoromethyl)benzyl 1,2-dihydro-2-methyl-4-(2-methylphenyl)-1-oxo-3-isoquinoline methyl ether]"
28,7.21,"CCc1ccccc1-c1c(COCc2cc(C(F)(F)F)cc(C(F)(F)F)c2)n(C)c(=O)c2ccccc12 [Example 216, 3,5-Bis(trifluoromethyl)benzyl 4-(2-ethylphenyl)-1,2-dihydro-2-methyl-1-oxo-3-isoquinolinemethyl ether]"
